Patent publication US11718612B2, “Inhibitors of receptor interacting protein kinase I for the treatment of disease” (Board of Regents, The University of Texas System, priority 2019, dated 2023)

tested on: U937 cells; test: Human U937 cellular necroptosis assay; format: cell-based; details: U-937; U937 cells stimulated with 25 ng/mL human TNFalpha and 25 μM z-VAD-FMK; 22 hr; Cell Titer-Glo viability
Description: Human U937 Cellular Necroptosis Assay
The human monocytic cell line U937 (CRL-1593.2) may be purchased from ATCC. The cells are routinely maintained in RPMI-1640 Medium (Gibco, Catalog #11875-093) supplemented with 10% heat inactivated fetal bovine serum (Gibco, Catalog #16140-071), 100 units/mL penicillin and 100 μg/mL streptomycin (Gibco, Catalog #15140-122), in a humidified incubator (37° C., 5% CO2). For the assay, cells are resuspended in RPMI-1640 phenol red free Media (Gibco, Catalog #11835-030) supplemented with 10% fetal bovine serum (Sigma, Catalog #F2442), 100 units/mL penicillin and 100 ug/mL streptomycin. […] Stock solutions of the test compounds are prepared in 100% DMSO (Sigma, Catalog #D2650) and serially diluted 1:3 using 100% DMSO. Compounds are additionally diluted 1:40 in assay medium, and 10 μL/well was transferred to the plate. Following the compound addition, the plate is incubated at 37° C. and 5% CO2 for 22 hr. After 22 hr, viability is assessed with the addition of 20 μL of Cell Titer-Glo 2.0 (Promega, Catalog #G9243). The tissue culture plate is shaken on an orbital shaker at 300 RPM for 15 minutes at room temperature in the dark. Luminescence is measured using a PerkinElmer Envision™ plate reader. IC50 values are calculated using a four-parameter logistic curve fit using Genedata Screener software.

Structure (SMILES) | IC50 [nM]
C[C@H](c1cccc(F)c1F)n1nc2c(c1Cl)CCN(c1cccc(Cl)c1F)C2=O (single isomer, unassigned) [Example 55a] | > 10000
C[C@@H](c1cccc(F)c1F)n1nc2c(c1Cl)CCN(c1cccc(Cl)c1F)C2=O (single isomer, unassigned) [Example 55b] | 6390
C[C@@H](c1cccc(C#N)c1)n1cnc(C(=O)Nc2cccc(Cl)c2F)n1 (single isomer, unassigned) [Example 56b] | > 10000
O=C1c2nn(Cc3cccc(F)c3F)c(Cl)c2CCN1c1cccc(Cl)c1F [Example 1, 3-chloro-6-(3-chloro-2-fluoro-phenyl)-2-[(2,3-difluorophenyl)methyl]-4,5-dihydropyrazolo[3,4-c]pyridin-7-one] | 34.2
CC(c1cccc(F)c1F)n1nc2c(c1Cl)CCN(c1cccc(Cl)c1F)C2=O (stereo not drawn) [Example 55, 3-chloro-6-(3-chloro-2-fluorophenyl)-2-(1-(2,3-difluorophenyl)ethyl)-2,4,5,6-tetrahydro-7H-pyrazolo[3,4-c]pyridin-7-one] | > 10000
CC(c1cccc(C#N)c1)n1cnc(C(=O)Nc2cccc(Cl)c2F)n1 (stereo not drawn) [Example 56, N-(3-chloro-2-fluorophenyl)-1-(1-(3-cyanophenyl)ethyl)-1H-1,2,4-triazole-3-carboxamide] | 1510
N#Cc1cccc(Cn2nc3c(c2Cl)CCN(c2cccc(Cl)c2F)C3=O)c1 [Example 58, 3-((3-Chloro-6-(3-chloro-2-fluorophenyl)-7-oxo-4,5,6,7-tetrahydro-2H-pyrazolo[3,4-c]pyridin-2-yl)methyl)benzonitrile] | 95.9
N#Cc1cccc(Cn2cc3c(n2)C(=O)N(c2cccc(Cl)c2F)CC3)c1 [Example 59, 3-((6-(3-chloro-2-fluorophenyl)-7-oxo-4,5,6,7-tetrahydro-2H-pyrazolo[3,4-c]pyridin-2-yl)methyl)benzonitrile] | 811
Nc1c2c(nn1Cc1ccccc1)C(=O)N(c1cccc(Cl)c1F)CC2 [Example 60, 3-amino-2-benzyl-6-(3-chloro-2-fluorophenyl)-2,4,5,6-tetrahydro-7H-pyrazolo[3,4-c]pyridin-7-one] | 1260
O=C1c2nn(Cc3ccccc3)c(Br)c2CCN1c1cccc(Cl)c1F [Example 61, 2-benzyl-3-bromo-6-(3-chloro-2-fluorophenyl)-2,4,5,6-tetrahydro-7H-pyrazolo[3,4-c]pyridin-7-one] | 44.6
O=C1c2nn(Cc3cnccn3)c(Cl)c2CCN1c1cccc(Cl)c1F [Example 62, 3-chloro-6-(3-chloro-2-fluorophenyl)-2-(pyrazin-2-yl-methyl)-2,4,5,6-tetrahydro-7H-pyrazolo[3,4-c]pyridin-7-one] | 53.7
O=C1c2nn(Cc3ncccc3F)c(Cl)c2CCN1c1cccc(Cl)c1F [Example 63, 3-chloro-6-(3-chloro-2-fluorophenyl)-2-((3-fluoropyridin-2-yl)methyl)-2,4,5,6-tetrahydro-7H-pyrazolo[3,4-c]pyridin-7-one] | 64.1
O=C1c2nn(Cc3ncccc3Cl)c(Cl)c2CCN1c1cccc(Cl)c1F [Example 64, 3-chloro-6-(3-chloro-2-fluorophenyl)-2-((3-chloropyridin-2-yl)methyl)-2,4,5,6-tetrahydro-7H-pyrazolo[3,4-c]pyridin-7-one] | 130
Cc1ccc(Cn2nc3c(c2Cl)CCN(c2cccc(Cl)c2F)C3=O)cc1 [Example 65, 3-chloro-6-(3-chloro-2-fluorophenyl)-2-(4-methylbenzyl)-2,4,5,6-tetrahydro-7H-pyrazolo[3,4-c]pyridin-7-one] | 207
O=C1c2nn(Cc3ccc(F)cc3)c(Cl)c2CCN1c1cccc(Cl)c1F [Example 66, 3-chloro-6-(3-chloro-2-fluorophenyl)-2-(4-fluorobenzyl)-2,4,5,6-tetrahydro-7H-pyrazolo[3,4-c]pyridin-7-one] | 291
Cc1cccc(Cn2nc3c(c2Cl)CCN(c2cccc(Cl)c2F)C3=O)c1 [Example 67, 3-chloro-6-(3-chloro-2-fluorophenyl)-2-(3-methylbenzyl)-2,4,5,6-tetrahydro-7H-pyrazolo[3,4-c]pyridin-7-one] | 444
Cn1cc(Cn2nc3c(c2Cl)CCN(c2cccc(Cl)c2F)C3=O)cn1 [Example 68, 3-chloro-6-(3-chloro-2-fluorophenyl)-2-((1-methyl-1H-pyrazol-4-yl)-methyl)-2,4,5,6-tetrahydro-7H-pyrazolo[3,4-c]pyridin-7-one] | 1340
O=C1c2nn(CC3CCCOC3)c(Cl)c2CCN1c1cccc(Cl)c1F (stereo not drawn) [Example 69, 3-chloro-6-(3-chloro-2-fluorophenyl)-2-((tetrahydro-2H-pyran-3-yl)methyl)-2,4,5,6-tetrahydro-7H-pyrazolo[3,4-c]pyridin-7-one] | 563
Cc1c2c(nn1Cc1ccccc1)C(=O)N(c1cccc(Cl)c1F)CC2 [Example 70, 2-benzyl-6-(3-chloro-2-fluorophenyl)-3-methyl-2,4,5,6-tetrahydro-7H-pyrazolo[3,4-c]pyridin-7-one] | 233
N#Cc1c2c(nn1Cc1ccccc1)C(=O)N(c1cccc(Cl)c1F)CC2 [Example 71, 2-benzyl-6-(3-chloro-2-fluorophenyl)-7-oxo-4,5,6,7-tetrahydro-2H-pyrazolo[3,4-c]pyridine-3-carbonitrile] | 256
NCc1c2c(nn1Cc1ccccc1)C(=O)N(c1cccc(Cl)c1F)CC2 [Example 72, 3-(aminomethyl)-2-benzyl-6-(3-chloro-2-fluorophenyl)-2,4,5,6-tetrahydro-7H-pyrazolo[3,4-c]pyridin-7-one] | 6110
O=C1c2nn(Cc3ccccc3)c(CO)c2CCN1c1cccc(Cl)c1F [Example 73, 2-benzyl-6-(3-chloro-2-fluorophenyl)-3-(hydroxymethyl)-2,4,5,6-tetrahydro-7H-pyrazolo[3,4-c]pyridin-7-one] | 348
O=C1c2nn(Cc3ccccc3)c(C(F)F)c2CCN1c1cccc(Cl)c1F [Example 74, 2-Benzyl-6-(3-chloro-2-fluorophenyl)-3-(difluoromethyl)-2,4,5,6-tetrahydro-7H-pyrazolo[3,4-c]pyridin-7-one] | 42
O=C1c2nn(Cc3ncccc3F)c(Cl)c2CCN1c1cc(CO)cc(Cl)c1F [Example 76, 3-chloro-6-(3-chloro-2-fluoro-5-(hydroxymethyl)phenyl)-2-((3-fluoropyridin-2-yl)methyl)-2,4,5,6-tetrahydro-7H-pyrazolo[3,4-c]pyridin-7-one] | 917
O=C1c2nn(Cc3ncccc3F)cc2CCN1c1cc(CO)cc(Cl)c1F [Example 77, 6-(3-chloro-2-fluoro-5-(hydroxymethyl)phenyl)-2-((3-fluoropyridin-2-yl)methyl)-2,4,5,6-tetrahydro-7H-pyrazolo[3,4-c]pyridin-7-one] | 594
CN(C)Cc1cc(Cl)c(F)c(N2CCc3c(nn(Cc4ncccc4F)c3Cl)C2=O)c1 [Example 78, 3-chloro-6-(3-chloro-5-((dimethylamino)methyl)-2-fluorophenyl)-2-((3-fluoropyridin-2-yl)methyl)-2,4,5,6-tetrahydro-7H-pyrazolo[3,4-c]pyridin-7-one] | > 10000
O=C1c2nn(Cc3cccc(F)c3F)c(Cl)c2CCN1c1cc(CO)cc(Cl)c1F [Example 79, 3-chloro-6-(3-chloro-2-fluoro-5-(hydroxymethyl)phenyl)-2-(2,3-difluorobenzyl)-2,4,5,6-tetrahydro-7H-pyrazolo[3,4-c]pyridin-7-one] | 346
